These results are taken from US11247994B2, “6-dithio-substituted-2′-deoxyguanosine compound, preparation method thereof and use thereof” (ZHEJIANG UNIVERSITY, priority 2018, dated 2022).

The test system of data set [1] is human leukemia cells K562. In words: MTT assay, tumor cell growth inhibition, K562. The class given is cell-based. The conditions noted are these: 48 hours. An excerpt:
(§1) MTT Assay—Inhibitory Effect of 6-dithio-substituted-2′-deoxyguanosine Derivatives on Tumor Cell Growth
(§2) We measured the tumor cell growth inhibitory activity of candidate compounds by MTT assay. Human tumor cells in logarithmic growth phase were digested with 0.25% pancreatin for a certain time, centrifuged, re-suspended and counted with a blood cell counting plate to prepare a cell suspension, and the cell suspension was adjusted to 1.0×10^4-1×10^5 cells/mL. The cell suspension was inoculated into a 96-well culture plate, 100 μL per well, and cultured in an incubator with saturated humidity, 37° C. and 5% CO2 for 24 hours until the cells completely adhered to the wall. The test compound was diluted to the required concentration with a complete medium, the complete medium of the 96-well culture plate inoculated with human tumor cells was sucked out, a medicament-containing medium was added, 100 μL per well, the final concentration of DMSO was less than 0.1%, and the culture plate was put in an incubator for 48 hours. 10 μl of MTT was added to each well of the 96-well plate, and the culture was continued for 4 h. The culture was stopped and the culture solution in the well was carefully sucked off. 150 μL DMSO was added to each well, and shaken at a low speed for 10 min on a shaking table, so that the crystal was fully dissolved. The absorbance of each well was measured at OD 570 nm of an enzyme-linked immunosorbent assay instrument. At the same time, zeroing wells (the culture medium, MTT, dimethyl sulfoxide) and control wells (cells, a drug dissolution medium with the same concentration, a culture solution, MTT, dimethyl sulfoxide) were set up, and the cell growth inhibitory activity was calculated with the corresponding solvents as the control. 3-6 multiple wells in each group were set up with repetition of several times. Cell viability of control=(Adrug group−Azeroing well)/(Acontrol well−Azeroing well)*100%. Drawing was drawn, the data were fitted into a concentration response curve with a variable slope, and IC50 value was calculated from the curve.
A general note: Tetrazolium assays rely on reduction of a dye to a coloured formazan, in cell work by metabolically active cells.

Data set [2] has as its system human colon cancer cells SW620. The data set is described as follows: MTT assay, tumor cell growth inhibition, SW620. The class given is cell-based. The conditions noted are these: SW-620, 48 hours.
Excerpt: as §1, §2

In data set [3] the test system is human colon cancer cells HT29. The data set is described as follows: MTT assay, tumor cell growth inhibition, HT29. The class given is cell-based. The conditions noted are these: HT-29, 48 hours.
Excerpt: as §1, §2

In another data set the test system is NCM460. The data set is described as follows: MTT assay, cell growth inhibition, NCM460. It is filed as cell-based. The conditions noted are these: Homo sapiens, 48 hours, read-out: Tumor cell growth inhibition IC50, NCM460.
Excerpt: as §1, §2

In data set [4] the test system is human non-small cell lung cancer A549. The data set is described as follows: MTT assay, tumor cell growth inhibition, A549. The class given is cell-based. The conditions noted are these: 48 hours.
Excerpt: as §1, §2

In another data set the target is T1, TrxR/Trx-1 (Homo sapiens, UniProt P10599).
T1 sequence (P10599 2-105 limits assumed): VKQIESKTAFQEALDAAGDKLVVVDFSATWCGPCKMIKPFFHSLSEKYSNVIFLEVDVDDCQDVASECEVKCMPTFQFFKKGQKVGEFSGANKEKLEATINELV
The data set is described as follows: Ellman test, inhibition of TrxR/Trx-1 activity. It is filed as biochemical. The text has this:
Ellman Test—Inhibitory Effect of 6-dithio-substituted-2′-deoxyguanosine Derivative Analogues on TrxR/Trx-1 Activity
A TrxR/TR experiment based on the Ellman reaction was used to determine the inhibitory activity of candidate compounds. Ellman reaction is that 5,5′-dithiobis (2-nitrobenzoic acid) (DTNB) reacts with sulfhydryl (—SH) to form a yellow substance with absorption at 412 nm. The increase of absorption can be equivalent to the decrease of NADPH mediated by TrxR, thus further judging the activity of TrxR/Trx-1. All experiments were carried out on 96-well plates. Before the start of the enzyme reaction, five groups of corresponding test compound stock solutions with different concentrations were prepared. In the TrxR/Trx-1 reaction, a total volume per well was 60 μL, including 100 mM HEPES, 5 mM EDTA (HE buffer, pH 7.5), 1 mM NADPH, 1.0 μM TrxR, 0.8 μM Trx-1, 2.5 mg/mL bovine insulin and the required concentration of compounds to be tested. No compound to be tested was added to the control group. No compound to be tested, TrxR and Trx-1 were added in the blank group. The plate was shaken on an oscillator for 30 seconds to fully mix the reactants. After incubation at 37° C. for 30 min, 100 μL of the prepared mixture containing 6 M guanidine hydrochloride, 50 mm Tris and 10 mm DTNB was added to terminate the reaction. After 15 minutes of incubation, the absorbance was measured at 412 nm. Finally, TrxR/Trx-1 activity %=(Atest−Akb)/(Acontrol−Akb), that is, the relative percentage of TrxR/Trx-1 activity was the activity inhibited by adding 2′-deoxyguanosine derivatives relative to the activity without 2′-deoxyguanosine derivatives. The data were fitted into a concentration response curve with a variable slope, and the IC50 value was calculated from the curve.
For orientation: In Ellman's method for cholinesterases, released thiocholine reacts with DTNB.

In data set [5] the test system is human breast cancer cells MCF7. The data set is described as follows: MTT assay, tumor cell growth inhibition, MCF7. The class given is cell-based. The conditions noted are these: 48 hours.
Excerpt: as §1, §2

Data set [6] concerns human breast cancer cells Bcap37. In words: MTT assay, tumor cell growth inhibition, Bcap37. It is filed as cell-based. As to conditions: 48 hours.
Excerpt: as §1, §2

Data set [7] in a line: Blood biochemical analysis and HE staining of tissues in HCT116 tumor-bearing nude mice. The conditions noted are these: tail vein once every two days, 12 times, blood 48 hours after the last treatment. The class given is in vivo. The method, then: (§3) We took human colon cancer cell line HCT116 as the research object, and established a subcutaneous transplanted tumor model of human colon cancer in 32 immunodeficient nude mice. The 24th generation HCT116 cells in logarithmic growth phase were digested with pancreatin to prepare a single-cell suspension, and 1×10^7 cells were inoculated subcutaneously in the right armpit of male nude mice about 5 weeks old. After inoculation, cyclophosphamide (100 mg/kg) was injected intraperitoneally for two consecutive days. […] On the 20th day after colon cancer cell HCT116 was implanted subcutaneously, nude mice were divided into 7 groups by a random number table method, including a test drug group, a positive control group and a blank control group. Specifically, group A: the compound A was administrated; Group B: the compound B was administrated; Group C: the compound C was administrated; Group D: the compound D was administrated; Group E: the compound 6-thio-DG was administrated; Group F: the compound PX-12 was administrated; Group G: blank group, without administration of any compound. Except group C with 3 rats and group G with 4 rats, all other 5 groups had 5 rats, they mice were labeled and injected by tail vein once every two days for 24 days, 12 times, with the dose of compound A being 2 mg/kg for the first 8 times and 10 mg/kg for the last 4 times, and the dosages of other drugs being the same molar weights. The tumor volume was calculated by taking the length of the tumor as the longest diameter and the width as the corresponding vertical diameter, and the tumor volume V=(length×width^2) mm^3/2. 48 hours after the last treatment, blood was taken from the eyes, and then the animals were killed. Blood was centrifuged to get the supernatant, and then blood biochemical analysis was performed. Paraffin embedded sections of fixed tissues were stained with HE. The tumor mass in a frozen tissue was sectioned in a frozen state, and then stained by DAPI and TUNEL to judge the apoptosis of the tumor tissue in nude mice.

Data set [8] deals with human melanoma cells A375. The data set is described as follows: MTT assay, tumor cell growth inhibition, A375. The class given is cell-based. As to conditions: A-375, 48 hours.
Excerpt: as §1, §2

In data set [9] the test system is human colon cancer cell line HCT116 subcutaneous transplanted tumor. In words: Tumor-bearing test in nude mice, HCT116 subcutaneous transplanted tumor (tumor volume, TUNEL). The class given is in vivo. As to conditions: HCT116 model; for Extent of apoptosis in tumor tissue (TUNEL staining, rank order): frozen tumor sections, DAPI and TUNEL, G group = blank; for Inhibitory effect on the growth of subcutaneous transplanted tumor tissue in nude mice (rank order, from slope of tumor volume): compound A 2 mg/kg first 8 times, 10 mg/kg last 4 times, others equimolar, KB = blank.
Excerpt: Tumor-Bearing Test in Nude Mice—Inhibitory Effect of 6-Dithio-Substituted-2′-Deoxyguanosine Derivatives on the Growth of Subcutaneous Transplanted Tumor Tissue in Nude Mice
1) Tumor-Bearing Mouse Model of Human Colon Cancer Cell Line HCT116
as §3

Data set [10] relates to human liver cancer cells HepG2. The data set is described as follows: MTT assay, tumor cell growth inhibition, HepG2. It is filed as cell-based. As to conditions: 48 hours.
Excerpt: as §1, §2

Data set [11] relates to human colon cancer cells HCT116. The data set is described as follows: MTT assay, tumor cell growth inhibition, HCT116. It is filed as cell-based. The conditions noted are these: HCT-116, 48 hours.
Excerpt: as §1, §2

[12] abbreviates: tail vein once every two days for 24 days.
[13] abbreviates: Ellman reaction, 37° C. 30 min, absorbance 412 nm, read-out: IC50, inhibition of TrxR/Trx-1 activity.

Each structure is given as a SMILES string. pIC50: −log10 of the molar value. Read-outs that look alike come from different tables or passages of the source.

In the case of `Nc1nc(SSCc2ccc(F)cc2)c2ncn(C3C[C@H](O)[C@@H](CO)O3)c2n1` (stereo partly drawn) [B, 6-(p-fluorobenzyldithio)-2′-deoxyguanosine], the pIC50 in data set [1] is 4.99. Besides, in data set [2], the pIC50 was 5.77. In addition, in data set [3], the pIC50 is 5.52. Moreover, in the data set with NCM460, the pIC50 was less than 3.00. Further, in [4], the pIC50 was 4.87. Further, at TrxR/Trx-1 (read-out: TrxR/Trx-1 IC50), the pIC50 was 5.01. In data set [5], this compound had a pIC50 of 4.81. In [6], this compound showed a pIC50 of 4.68. Besides, in data set [7], the Alanine aminotransferase was 105.9 U/L, the Albumin was 26.3 g/L, the Alkaline phosphatase amounted to 31.0 U/L and the Aspartate aminotransferase was determined as 254.4 U/L. Also, in data set [7], the BUN is recorded as 14.8 mmol/L, the Chloride ion stood at 124.0 mmol/L, the Creatine kinase is reported as 2169 U/L and the Creatinine came to 8.67 µmol/L. Moreover, in [7], the Glucose is given as 2.29 mmol/L, the Potassium ion was 6.26 mmol/L, the Sodium ion is given as 158.0 mmol/L and the Total bilirubin was found to be 0.90 µmol/L. In addition, in data set [7], the Total cholesterol was determined as 2.76 mmol/L, the Total protein was 50.7 g/L and the Triglyceride is 0.52 mmol/L. Further, in data set [8], the pIC50 is 6.28. For the same compound, in data set [9], the “Extent of apoptosis in tumor tissue (TUNEL staining, rank order)” value is reported as “D group>A group≈B group≈E group (6-thio-dG group)>C group>F group (PX-12 group)>G group (KB group)”. Further, the “Inhibitory effect on the growth of subcutaneous transplanted tumor tissue in nude mice (rank order, from slope of tumor volume)” value in [9] (setting [12]) is “D>B≈A≈6-thio-dG>PX-12>C>KB”. Also, the “Ability to inhibit the growth of transplanted tumor tissue compared with positive controls” value in data set [9] (tail vein once every two days for 24 days, equimolar doses) was “close to that of the positive control 6-thio-dG and stronger than that of the positive control PX-12”. The compound further gave a pIC50 in [10] of more than 5.00. Moreover, in [11], the pIC50 is 5.58.
On to `Nc1nc(Cl)nc2c1ncn2[C@H]1C[C@H](O)[C@@H](CO)O1` [Cladribine, reference compound], for which the pIC50 was 5.10 in [1]; less than 4.00 in data set [2]; 5.03 in [3]; less than 3.00 in the data set with NCM460; less than 4.00 on TrxR/Trx-1 (setting [13]); less than 4.00 in data set [5]. The pIC50 in data set [6] was less than 4.00; in [11], 4.55.
As to `CC(C)(C)SSc1nc(N)nc2c1ncn2C1C[C@H](O)[C@@H](CO)O1` (stereo partly drawn) [Compound C, 6-(tert-butyldithio)-2′-deoxyguanosine], in data set [1], the pIC50 was 4.54. For the same compound, in data set [3], the pIC50 was 5.13. For the same compound, the pIC50 in the data set on NCM460 was less than 3.00. The same compound gave a pIC50 in data set [4] of 4.45. For the same compound, on TrxR/Trx-1 (setting [13]), the pIC50 was 4.32. The pIC50 in data set [6] was 4.45. Also, in data set [7], the Alanine aminotransferase stood at 25.5 U/L, the Albumin amounted to 27.9 g/L, the Alkaline phosphatase came to 33.7 U/L and the Aspartate aminotransferase is given as 128.3 U/L. Further, in [7], the BUN was 9.00 mmol/L, the Chloride ion stood at 120.5 mmol/L, the Creatine kinase stood at 980.7 U/L and the Creatinine came to 6.67 µmol/L. Moreover, in data set [7], the Glucose was 2.99 mmol/L, the Potassium ion worked out at 6.17 mmol/L, the Sodium ion is recorded as 159.0 mmol/L and the Total bilirubin was found to be 0.80 µmol/L. In data set [7], this compound had a Total cholesterol of 2.65 mmol/L, a Total protein of 51.6 g/L and a Triglyceride of 1.15 mmol/L. This compound also had a pIC50 in data set [8] of 5.51. For the same compound, the “Extent of apoptosis in tumor tissue (TUNEL staining, rank order)” value in data set [9] is “D group>A group≈B group≈E group (6-thio-dG group)>C group>F group (PX-12 group)>G group (KB group)”. Moreover, in [9] (setting [12]), the “Inhibitory effect on the growth of subcutaneous transplanted tumor tissue in nude mice (rank order, from slope of tumor volume)” value was “D>B≈A≈6-thio-dG>PX-12>C>KB”. Besides, in data set [10], the pIC50 is 4.30 to 5.00. Besides, the pIC50 in [11] is 4.66.
